Where a name gives a salt, the structure may show the parent alone. Residues, ends and D or L forms follow the SMILES beside them. *: point of attachment. Cbz = O=C(OCc1ccccc1)*
Assays:
Format in all cases: biochemical
[1] = biological target: T1, urinary angiotensin-converting enzyme (uACE) (Homo sapiens, UniProt P12821); assay: Fluorescent kinetic uACE activity assay with ACE-specific inhibitors and inhibitors of other proteases (sensitivity testing); details: for effect on measured uACE activity: peptidase inhibitors, inhibitor-free 10 kDa retentate
T1 construct: from tissue; host or cells: human urine (native, or retentate of 10 kDa / 30 kDa Vivaspin 20 membrane filters)

[2] = biological target: T1, urinary angiotensin-converting enzyme (uACE); assay: Fluorescent kinetic ACE activity assay on inhibitor-free ACE purified from urine (30 kDa retentate) with potential endogenous inhibitors; details: for uACE inhibition within reference (physiological) urinary concentration range: ACE purified from urine, physiological concentration range of the molecule in urine; for IC50: ACE purified from urine (30 kDa retentate), two-phase decay fit
Experimental: (§1) ACE activity was measured using the optimized fluorescent kinetic method previously reported by our group with different sample dilutions for each experiment.
In the final dilutional protocol, the reaction mixture contained 100 mM tris(hydroxymethyl)aminomethane hydrochloride (TRIS) buffer (pH 7.0), 15 μM Abz-FRK(Dnp)P-OH substrate (synthesized by Peptide 2.0, Chantilly, VA, USA), 50 mM NaCl, 10 μM ZnCl2, and urine at 64-fold and 128-fold final dilutions. […] Continuous recording of fluorescent intensity change was performed for 90 min with 1-min measurement intervals at 37 °C. Data points between 20 min and 80 min were used for analysis. When activity measured at 64-fold dilution exceeded that measured at 128-fold, the 64-fold results were used to avoid over-dilution bias of dilute urine samples.
Inhibitor-free ACE pre-purified on a 30 kDa Vivaspin 20 membrane filter column was used to identify inhibitors. Potential inhibitors were dissolved according to factory instructions (Urea: Cat. No.: U6504-1KG; Sigma-Aldrich, St. Louis, MO, USA; Uric acid: Cat. No.: U2625-25G; Sigma-Aldrich, St. Louis, MO, USA; Urobilinogen: Cat. No: 651-10; Lee Biosolutions, Maryland Heights, MO, USA). In the corresponding experiments, uACE with activities ranging from 0.15 to 0.53 U/L was applied. The obtained curves were fitted using the ‘two-phase decay’ equation in GraphPad Prism software, version 9 (GraphPad Software Inc., San Diego, CA, USA).

serum ACE = biological target: T2, serum ACE (Homo sapiens, UniProt P12821); assay: Serum ACE activity in the presence of phosphoramidon; details: compared with effect on uACE
T2 construct: from tissue; host or cells: serum
Experimental: as §1

T1 sequence (P12821 30-1232 limits assumed): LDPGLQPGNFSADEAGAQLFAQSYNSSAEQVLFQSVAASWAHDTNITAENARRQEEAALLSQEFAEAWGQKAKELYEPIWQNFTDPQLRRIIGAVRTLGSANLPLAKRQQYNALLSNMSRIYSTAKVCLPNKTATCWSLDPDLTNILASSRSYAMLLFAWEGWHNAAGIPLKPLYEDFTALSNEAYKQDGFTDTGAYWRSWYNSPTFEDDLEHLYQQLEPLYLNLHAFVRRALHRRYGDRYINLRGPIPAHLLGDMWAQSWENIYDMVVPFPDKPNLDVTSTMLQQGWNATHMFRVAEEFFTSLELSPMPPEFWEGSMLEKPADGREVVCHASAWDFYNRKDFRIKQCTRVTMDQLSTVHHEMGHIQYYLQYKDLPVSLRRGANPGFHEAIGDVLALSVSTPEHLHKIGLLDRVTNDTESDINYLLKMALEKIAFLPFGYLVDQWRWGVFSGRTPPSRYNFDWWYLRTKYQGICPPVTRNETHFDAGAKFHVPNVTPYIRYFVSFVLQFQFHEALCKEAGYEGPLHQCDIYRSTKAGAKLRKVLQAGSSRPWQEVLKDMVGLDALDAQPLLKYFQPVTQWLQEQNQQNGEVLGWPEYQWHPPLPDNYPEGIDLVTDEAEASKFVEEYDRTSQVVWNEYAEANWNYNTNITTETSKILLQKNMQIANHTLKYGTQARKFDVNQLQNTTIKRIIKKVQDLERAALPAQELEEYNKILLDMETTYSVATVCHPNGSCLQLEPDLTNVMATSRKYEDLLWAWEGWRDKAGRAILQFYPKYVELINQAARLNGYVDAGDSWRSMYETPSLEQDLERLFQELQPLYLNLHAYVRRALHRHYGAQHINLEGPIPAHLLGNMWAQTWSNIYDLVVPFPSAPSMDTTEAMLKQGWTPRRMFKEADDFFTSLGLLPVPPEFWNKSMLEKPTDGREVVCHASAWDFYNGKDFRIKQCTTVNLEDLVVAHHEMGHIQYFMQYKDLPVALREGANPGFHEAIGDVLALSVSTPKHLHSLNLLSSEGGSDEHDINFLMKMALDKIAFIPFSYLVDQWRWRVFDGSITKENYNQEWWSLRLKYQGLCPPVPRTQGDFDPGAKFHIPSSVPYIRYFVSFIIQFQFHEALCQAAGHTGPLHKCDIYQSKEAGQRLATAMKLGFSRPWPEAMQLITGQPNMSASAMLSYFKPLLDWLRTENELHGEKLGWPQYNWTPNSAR
T2 sequence (P12821 30-1232 limits assumed): as above

SMILES	effect on measured uACE activity [1]	uACE inhibition within reference (physiological) urinary concentration range [2]	also measured
CC(C)C[C@@H](N)[C@H](O)C(=O)N[C@H](C(=O)N[C@H](C(=O)N[C@@H](CC(=O)O)C(=O)O)C(C)C)C(C)C.Cl [Amastatin hydrochloride]	had no effect	–	–
NC(N)=O [Urea]	–	10–25%	–
C[C@H](NC(=O)[C@@H]1CCCN1C(=O)[C@@H]1CCCN1C(=O)[C@@H](O)[C@H](N)Cc1ccccc1)C(N)=O [apstatin, Apstatin]	did not alter uACE activity	–	–
CC(C)C[C@H](NC(=O)[C@@H](O)[C@H](N)Cc1ccccc1)C(=O)O [bestatin hydrochloride, Bestatin hydrochloride]	did not alter uACE activity	–	–
NCCCC[C@H](N[C@@H](CCc1ccccc1)C(=O)O)C(=O)N1CCC[C@H]1C(=O)O [lisinopril]	–	–	inhibition of ACE activity in control reactions ([1]; 1 μM): completely inhibiting ACE activity; extent of uACE activity inhibition ([1]; ACE-inhibitor drugs, concentration series): completely inhibited
CC(C)C[C@H](NP(=O)(O)O[C@@H]1O[C@@H](C)[C@H](O)[C@@H](O)[C@H]1O)C(=O)N[C@@H](Cc1c[nH]c2ccccc12)C(=O)O [phosphoramidon disodium salt, Phosphoramidon disodium salt]	–	–	reduction of uACE activity ([1]; 1 μM concentration): approximately 35%; effect on serum ACE activity (serum ACE): comparable inhibitory effect

Continued, in another order:

effect on measured uACE activity [1]	uACE inhibition within reference (physiological) urinary concentration range [2]	SMILES	also measured
had no effect	–	CC(C)C[C@H](N[C@@H](Cc1cncn1Cc1cc(Cl)cc(Cl)c1)C(=O)O)C(=O)O [MLN-4760]	–
–	30–50%	O=c1[nH]c(=O)c2[nH]c(=O)[nH]c2[nH]1 [Uric acid]	IC50 [2]: 3610 µM
–	3–20%	CCC1=C(C)C(Cc2[nH]c(Cc3[nH]c(CC4NC(=O)C(C)=C4CC)c(C)c3CCC(=O)O)c(CCC(=O)O)c2C)NC1=O (stereo not drawn) [Urobilinogen]	IC50 [2]: 298 µM; IC50 ([2]; listed as urobilinogen): 298 µM
no detectable effect	–	O=C[C@@H]1CCCN1C(=O)[C@@H]1CCCN1C(=O)OCc1ccccc1 [Z-prolyl-prolinal] (Cbz-Pro-Pro-aldehyde)	–

From publication PMC12562155, “Interference-Free Measurement of Urinary Angiotensin-Converting Enzyme (ACE) Activity: Diagnostic and Therapeutic Monitoring Implications” (Biomedicines, 2025)
